Results: the NIST ThermoML archive (doi:10.1016/j.jct.2009.01.010)
“And” between values parts separate entries of the source, which are not always exact repeats. Equal values may be shown once.

Tests used:
[1] = 298.15 K, 101 kPa, Liquid; for speed of sound: Linear variable-path acoustic interferometer; for mass density: Pycnometric method
[2] = refractive index (Na D-line) (dimensionless); details: 298.15 K; 101.33 kPa; Liquid; Abbe refractometer
[3] = refractive index (Na D-line) (dimensionless); xn = mol fraction of the nth substance listed; details: 298.15 K, 101 kPa, Liquid, Abbe refractometer
[4] = xn = mol fraction of the nth substance listed; details: 298.15 K, 101 kPa, Liquid; for speed of sound: Linear variable-path acoustic interferometer; for mass density: Pycnometric method

COCCOCCO [2-(2-methoxyethoxy)ethanol]
Details | mass density [kg/m3] | refractive index | speed of sound [m/s]
[1] | 1016.95 | – | 1422.6
[2] | – | 1.425 | –

COCCOCCO [2-(2-methoxyethoxy)ethanol] + O
Details | mass density, [4] [kg/m3] | refractive index, [3] | speed of sound, [4] [m/s]
x1 = 0.013 | 1002.42 | 1.341 | 1546
x1 = 0.026 | 1008.21 | 1.349 | 1582
x1 = 0.051 | 1017.19 | 1.36 | 1640
x1 = 0.064 | 1021.22 | 1.366 | 1646.7
x1 = 0.074 | 1023.92 | 1.37 | 1662
x1 = 0.101 | 1029.24 | 1.378 | 1674
x1 = 0.15 | 1034.64 | 1.39 | 1674
x1 = 0.187 | 1035.66 | 1.396 | 1660
x1 = 0.305 | 1034.8 | 1.408 | 1606
x1 = 0.401 | 1031.91 | 1.412 | 1562
x1 = 0.506 | 1028.25 | 1.415 | 1514
x1 = 0.646 | 1024.01 | 1.418 | 1474
x1 = 0.766 | 1021.27 | 1.419 | 1454
x1 = 0.895 | 1018.65 | 1.422 | 1442
x1 = 1 | 1016.95 | 1.425 | 1422.6

CCOCCO [2-ethoxyethan-1-ol]
Details | mass density [kg/m3] | refractive index | speed of sound [m/s]
[1] | 925.39 | – | 1302.5
[2] | – | 1.4058 | –

CCOCCO [2-ethoxyethan-1-ol] + O
Details | mass density, [4] [kg/m3] | refractive index, [3] | speed of sound, [4] [m/s]
x1 = 0.0092 | 996.93 | 1.3389 | 1541.3
x1 = 0.0177 | 997.02 | 1.3415 | 1553.1
x1 = 0.025 | 997.2 | 1.3442 | 1575.6
x1 = 0.0502 | 998.06 | 1.3542 | 1626.9
x1 = 0.0767 | 998.24 | 1.3628 | 1649.6
x1 = 0.1024 | 996.67 | 1.3709 | 1646.5
x1 = 0.183 | 988.37 | 1.3854 | 1567.6
x1 = 0.299 | 974.41 | 1.394 | 1517.4
x1 = 0.4058 | 963.11 | 1.3979 | 1458.1
x1 = 0.5059 | 954.22 | 1.4012 | 1415.2
x1 = 0.5996 | 947.01 | 1.4025 | 1385.7
x1 = 0.706 | 940.07 | 1.4039 | 1359.6
x1 = 0.8431 | 933.47 | 1.4046 | 1330.4
x1 = 0.8716 | 932.35 | 1.4049 | 1325.6
x1 = 1 | 925.39 | 1.4058 | 1302.5

COCCO [2-methoxyethan-1-ol]
Details | mass density [kg/m3] | refractive index | speed of sound [m/s]
[1] | 960.23 | – | 1341.7
[2] | – | 1.4002 | –

COCCO [2-methoxyethan-1-ol] + O
Details | mass density, [4] [kg/m3] | refractive index, [3] | speed of sound, [4] [m/s]
x1 = 0.0202 | 999.08 | 1.34 | 1546.5
x1 = 0.04 | 1001.08 | 1.346 | 1581
x1 = 0.0539 | 1002.4 | 1.35 | 1600.9
x1 = 0.0822 | 1004.71 | 1.357 | 1636.5
x1 = 0.101 | 1005.84 | 1.361 | 1643.7
x1 = 0.1509 | 1007.02 | 1.37 | 1654.7
x1 = 0.2036 | 1005.67 | 1.378 | 1641.7
x1 = 0.3025 | 999.82 | 1.386 | 1587.3
x1 = 0.4033 | 992.74 | 1.391 | 1532.3
x1 = 0.5009 | 985.91 | 1.394 | 1488.5
x1 = 0.5514 | 982.57 | 1.395 | 1470.9
x1 = 0.6976 | 974 | 1.396 | 1418.8
x1 = 0.7855 | 969.57 | 1.398 | 1392
x1 = 0.889 | 964.87 | 1.398 | 1369.3
x1 = 1 | 960.23 | 1.4002 | 1341.7

CCOCCOCCO [3,6-dioxa-1-octanol]
Details | mass density [kg/m3] | refractive index | speed of sound [m/s]
[1] | 984.6 | – | 1378
[2] | – | 1.425 | –

CCOCCOCCO [3,6-dioxa-1-octanol] + O
Details | mass density, [4] [kg/m3] | refractive index, [3] | speed of sound, [4] [m/s]
x1 = 0.013 | 1001.37 | 1.3424 | 1562
x1 = 0.025 | 1005.93 | 1.3515 | 1602
x1 = 0.05 | 1013.24 | 1.3654 | 1656
x1 = 0.06 | 1015.27 | 1.3695 | 1670.5
x1 = 0.076 | 1017.84 | 1.376 | 1670
x1 = 0.101 | 1020.05 | 1.3837 | 1658
x1 = 0.152 | 1019.56 | 1.396 | 1621
x1 = 0.202 | 1017.51 | 1.4028 | 1601.9
x1 = 0.302 | 1011.81 | 1.4108 | 1549.5
x1 = 0.402 | 1005.59 | 1.414 | 1500
x1 = 0.519 | 999.21 | 1.4198 | 1460
x1 = 0.59 | 996.2 | 1.4203 | 1442
x1 = 0.775 | 990.78 | 1.4228 | 1412
x1 = 0.852 | 988.76 | 1.4235 | 1398
x1 = 1 | 984.6 | 1.425 | 1378

O [water]
Details | mass density [kg/m3] | refractive index
[1] | 999.704 | –
[2] | – | 1.333 and 1.3325

O [water] + CCOCCO
x2 = 0
Details | mass density [kg/m3] | refractive index
[3] | – | 1.3325
[4] | 999.704 | –

O [water] + CCOCCOCCO
x2 = 0
Details | mass density [kg/m3] | refractive index
[3] | – | 1.3325
[4] | 999.704 | –

O [water] + COCCO
x2 = 0
Details | mass density [kg/m3] | refractive index
[3] | – | 1.333
[4] | 999.704 | –

O [water] + COCCOCCO
x2 = 0
Details | mass density [kg/m3] | refractive index
[3] | – | 1.333
[4] | 999.704 | –
